# Measurements: US6495588B2, “Scytonemin and methods of using thereof” (The Regents of the University of California, priority 2000, dated 2002)
# pIC50: −log10 of the molar value.
# Assays:
# CDK1/cyclinB1 = biological target: T1, CDK1/cyclinB1 (Homo sapiens, UniProt P06493); assay: CDK1/cyclinB histone H1 phosphorylation assay; assay type: biochemical; settings: 0.1 μM ATP, histone H1 substrate
# T1 construct: made in house
# Procedure: To determine the effect of SCY on CDK1/cyclinB1 kinase activity, the following assay was conducted. Baculovirus vectors expressing CDK1 and cyclinB1, obtained from Dr. David Morgan of the University of California San Francisco, were expressed and purified by the method described in Desai, et al. (1992) Mol. Cell Biol. 3:571-582, which is herein incorporated by reference, to 80% purity as determined by SDS-PAGE analysis and Coomassie Blue staining. CDK1/cyclinB1 kinase activity was analyzed in a 96-well flashplate assay using 2.0 μg/well bovine histone H1 as a substrate. Reactions were run in 50 μl with 0.25 μg of CDK1/cyclinB1 complex, in reaction buffer (50 mM HEPES, pH 7.4, 10 mM MgCl2, 0.1 μM ATP, 1 mM DTT and 0.5 μCi of [γ^33-P] ATP (final reaction concentrations)), and SCY (1 nM to 10 μM final reaction concentration). The positive control used was […] hymenialdisine (final concentration) in a final vehicle concentration of 1% DMSO.
# Reactions were initiated with the addition of ATP and allowed to proceed for 10 minutes at room temperature. The reactions were stopped by washing the plate five times with 300 μl/well of PBS. The plate was then counted on a Packard Top-Count.
# [1] = system: CAP-induced mouse ear edema; assay: Capsaicin (CAP)-induced mouse ear edema assay; assay type: in vivo
# Procedure: Various dilutions of test compounds were topically applied in acetone to the inside and outside surfaces of the left ears of mice in a solution comprising 0.1 μg RTX or 250 μg CAP per ear. A control, acetone, was applied to all right ears. After a 30 minute incubation, the mice were sacrificed, the ears removed, and bores taken and weighed.
# For systemic studies, the test compounds were administered by intraperitoneal injection in a vehicle comprising 20% propylene glycol, 80% saline and 3 drops TWEEN-20 30 minutes or 1 hour prior to topical application of RTX or CAP. Control animals were injected with vehicle only. 0.1 μg RTX or 250 μg CAP was applied to the left ears and acetone was applied to the right ears. After 30 minutes of incubation, the mice were scarified, ears removed and bores taken and weighed.
# Edema was measured by subtracting the weight of the right ear (control) from the weight of the left ear. The results were recorded as % decrease (inhibition) or % increase (potentiation) in edema relative to the control group edema.
# [2] = system: PMA-induced cell proliferation in mouse ear epidermis; assay: Mouse ear cell proliferation assay (IUdR incorporation, PCNA histology); assay type: in vivo
# Procedure: To determine the efficacy of scytonemin as an anti-proliferative agent in vivo, the following assay was conducted. On day one, test compounds were delivered in 10 μl 20% DMSO, 80% acetone and applied to both the inner and outer pinnae of left ears (20 μl total) of male, Swiss Webster mice (Taconic Farms, Germantown, N.Y.). The right ears received only vehicle. One hour post test compound application, 4 μg/ear PMA (Sigma, St. Louis, Mo.) in 10 μl acetone was applied to the inner pinnae of each left ear and 10 μl acetone was applied to each right ear. Four hours post test compound application, the each test compound was again applied in the same manner. On day two, the test compounds were applied twice with a four-hour interval between each application. On day three, the test compounds and PMA were applied as they had been on day one.
# One hour after the final test compound applications, each mouse was injected with 0.6 ml of a solution containing the thymidine analogue, 5-iodo-I^125-2′-deoxyuridine (IUdR) (2 μCi-I^125/mouse) and, to inhibit the endogenous deoxythymidilic acid synthetase, fluorodeoxyuridine (FUdR) ([…]). This IUdR/FUdR solution was made up in RPMI 1640 media. Eighteen hours post injection, the mice were euthanized via CO2 inhalation, the ears were excised and soaked individually in a 70% EtOH solution overnight.
# IUdR incorporation was then measured using a Beckman Gamma counter, Model 5500B. […] Therefore, scytoneman compounds may be used to reduce, prevent, inhibit, modulate, or attenuate cell proliferation.
# Additionally, immunostaining with Proliferating Cell Nuclear Antigen (PCNA) was used as a proliferation marker to identify proliferating cells. PCNA is a cofactor for DNAt […]. Expression levels of PCNA fluctuate over the cell cycle. […] Low expression levels of PCNA indicate non-cycling cells.
# Histological analysis was used to determine the effect of scytonemin on the thickness of the epidermal layer of skin, the mitotic index of cells in the epidermal layer, the number of cells in the epidermis, and the amount of immune cell infiltration. PCNA antibodies were used to detect the presence of PCNA in cells and a peroxidase-Ni/DAB development system was used to stain PCNA-positive cells black and hematoxlin was used as a nuclear blue counterstain using conventional methods.
# T1 sequence (P06493 whole entry): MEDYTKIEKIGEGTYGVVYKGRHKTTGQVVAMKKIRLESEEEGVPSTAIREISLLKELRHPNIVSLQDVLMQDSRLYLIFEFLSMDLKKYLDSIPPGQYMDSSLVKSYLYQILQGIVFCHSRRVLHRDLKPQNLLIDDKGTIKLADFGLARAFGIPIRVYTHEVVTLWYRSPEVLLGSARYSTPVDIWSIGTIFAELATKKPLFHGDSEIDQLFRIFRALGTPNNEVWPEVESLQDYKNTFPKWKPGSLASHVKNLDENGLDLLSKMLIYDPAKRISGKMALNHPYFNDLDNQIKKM
# T1 sequence (P14635 whole entry partner): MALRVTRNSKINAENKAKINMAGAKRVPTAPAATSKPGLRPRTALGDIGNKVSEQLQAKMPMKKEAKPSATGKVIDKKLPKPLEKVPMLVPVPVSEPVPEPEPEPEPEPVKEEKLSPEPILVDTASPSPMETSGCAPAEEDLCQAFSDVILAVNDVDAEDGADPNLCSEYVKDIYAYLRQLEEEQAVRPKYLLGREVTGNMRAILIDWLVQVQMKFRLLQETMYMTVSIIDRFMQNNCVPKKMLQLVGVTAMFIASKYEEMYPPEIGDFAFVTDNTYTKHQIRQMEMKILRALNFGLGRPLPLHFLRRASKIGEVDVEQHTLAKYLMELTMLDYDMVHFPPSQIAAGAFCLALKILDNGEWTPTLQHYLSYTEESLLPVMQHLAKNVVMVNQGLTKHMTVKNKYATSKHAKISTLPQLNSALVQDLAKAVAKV
substance,measurement,setting,value
scytonemin,pIC50,CDK1/cyclinB1,~5.52
same,inhibition of edema,"[1]; systemic 10 mg/kg, 30 minutes before topical CAP",no inhibition of edema
same,inhibition of edema,[1]; topical 500 μg/ear against 250 μg/ear CAP,~24%
same,cells actively proliferating (PCNA staining),"[2]; +PMA 4 μg/ear, scytonemin 1 mg/ear, dexamethasone 0.15 mg/ear",about 60%
same,mitotic index of epidermal cells,"[2]; PMA-treated mouse ears, 5% SCY",reduces the mitotic index
same,cell proliferation in vivo (IUdR incorporation),"[2]; topical, PMA 4 μg/ear",effectively reduced or prevented cell proliferation in vivo
